Assay results reported in patent US10040838B2, “CRHR2 peptide agonists and uses thereof” (JANSSEN PHARMACEUTICA NV, priority 2008, dated 2018).
Residues, ends and D or L forms follow the SMILES beside them. No end group written: not given here. *: point of attachment. Succinimide(1-Et,3-yl) = CCN1C(=O)CC(*)C1=O

What follows are molecules tested against T1, human CRHR2 (Homo sapiens, UniProt Q13324) (assay: cAMP assay in h-CRHR2 transfected SK-N-MC cells). Conditions: Table 12; Hill slope.
T1 construct: expressed in transfected cells
T1 sequence (Q13324 1-411): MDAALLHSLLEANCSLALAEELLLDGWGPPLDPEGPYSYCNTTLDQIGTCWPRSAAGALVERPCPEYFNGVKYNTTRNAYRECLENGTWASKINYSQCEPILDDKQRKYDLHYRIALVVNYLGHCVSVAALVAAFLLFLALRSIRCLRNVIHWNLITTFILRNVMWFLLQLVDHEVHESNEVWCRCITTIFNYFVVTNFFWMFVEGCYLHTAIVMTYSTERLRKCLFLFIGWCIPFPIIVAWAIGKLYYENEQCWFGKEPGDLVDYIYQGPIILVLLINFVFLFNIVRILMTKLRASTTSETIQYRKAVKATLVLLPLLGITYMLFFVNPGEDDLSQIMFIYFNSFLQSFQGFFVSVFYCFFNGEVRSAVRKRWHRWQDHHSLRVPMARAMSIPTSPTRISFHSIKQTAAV
Assay type: cell-based
Summary of the method: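 SK-N-MC cells stably expressing human CRHR2 were stimulated with peptides (1 pM-10 μM) for 60 min at 37 °C with 10 μM IBMX, then lysed in 0.5 M HCl. cAMP was quantified by competitive [125I]-cAMP antibody flash-plate assay. Hill-equation fits gave A50/pA50; Log DR was taken relative to h-SCP control in the same batch.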

Molecule | nH
KFTLSLDVPTNIMNLLFNIAKAKNLRAQAAANAHLMAQI-NH2 [SEQ ID NO: 107, KFTLSLDVPTNIMNLLFNIAKAKNLRAQAAANAHLMAQI-NH2] | 1.07
LSLDVPTNIMNLLFNIAKAKNLRAQAAANAHLMAQI-NH2 [SEQ ID NO: 109, LSLDVPINIMNLLFNIAKAKNLRAQAAANAHLMAQI-NH2] | 0.74

Same assay, conditions: Table 13; h-SCP control pA50 minus test compound pA50 within same assay batch

Molecule | Log DR
CC[C@H](C)[C@H](NC(=O)[C@H](CCC(N)=O)NC(=O)[C@H](C)NC(=O)[C@H](CCSC)NC(=O)[C@H](CC(C)C)NC(=O)[C@H](Cc1c[nH]cn1)NC(=O)[C@H](C)NC(=O)[C@H](CC(N)=O)NC(=O)[C@H](C)NC(=O)[C@H](C)NC(=O)[C@H](C)NC(=O)[C@H](CCC(N)=O)NC(=O)[C@H](C)NC(=O)[C@H](CCCNC(=N)N)NC(=O)[C@H](CC(C)C)NC(=O)[C@H](CC(N)=O)NC(=O)[C@H](CCCCN)NC(=O)[C@H](C)NC(=O)[C@H](CCCCN)NC(=O)[C@H](C)NC(=O)[C@@H](NC(=O)[C@H](CSC1CC(=O)N(CC)C1=O)NC(=O)[C@H](Cc1ccccc1)NC(=O)[C@H](CC(C)C)NC(=O)[C@H](CC(C)C)NC(=O)[C@H](CC(N)=O)NC(=O)[C@H](CCSC)NC(=O)[C@@H](NC(=O)[C@H](CC(N)=O)NC(=O)[C@@H](NC(=O)[C@@H]1CCCN1C(=O)[C@@H](NC(=O)[C@H](CC(=O)O)NC(=O)[C@H](CC(C)C)NC(=O)[C@H](CO)NC(=O)[C@H](CC(C)C)NC(=O)[C@@H](NC(=O)[C@H](Cc1ccccc1)NC(=O)[C@H](CCCCN)NC(=O)[C@@H](N)[C@@H](C)O)[C@@H](C)O)C(C)C)[C@@H](C)O)[C@@H](C)CC)[C@@H](C)CC)C(N)=O (stereo partly drawn) [SEQ ID NO: 52, TKFTL SLDVP TNIMN LLFC(-NES)I AKAKN LRAQA AANAH LMAQI-NH2] (H-TKFTLSLDVPTNIMNLLFC(Succinimide(1-Et,3-yl))IAKAKNLRAQAAANAHLMAQI-NH2; N-terminus assumed) | 0.05
CC[C@H](C)[C@H](NC(=O)[C@H](CCC(N)=O)NC(=O)[C@H](C)NC(=O)[C@H](CCSC)NC(=O)[C@H](CC(C)C)NC(=O)[C@H](Cc1c[nH]cn1)NC(=O)[C@H](C)NC(=O)[C@H](CC(N)=O)NC(=O)[C@H](C)NC(=O)[C@H](C)NC(=O)[C@H](C)NC(=O)[C@H](CCC(N)=O)NC(=O)[C@H](C)NC(=O)[C@H](CCCNC(=N)N)NC(=O)[C@H](CC(C)C)NC(=O)[C@H](CC(N)=O)NC(=O)[C@H](CCCCN)NC(=O)[C@H](C)NC(=O)[C@H](CCCCN)NC(=O)[C@H](C)NC(=O)[C@@H](NC(=O)[C@H](CC(N)=O)NC(=O)[C@H](Cc1ccccc1)NC(=O)[C@H](CSC1CC(=O)N(CC)C1=O)NC(=O)[C@H](CC(C)C)NC(=O)[C@H](CC(N)=O)NC(=O)[C@H](CCSC)NC(=O)[C@@H](NC(=O)[C@H](CC(N)=O)NC(=O)[C@@H](NC(=O)[C@@H]1CCCN1C(=O)[C@@H](NC(=O)[C@H](CC(=O)O)NC(=O)[C@H](CC(C)C)NC(=O)[C@H](CO)NC(=O)[C@H](CC(C)C)NC(=O)[C@@H](NC(=O)[C@H](Cc1ccccc1)NC(=O)[C@H](CCCCN)NC(=O)[C@@H](N)[C@@H](C)O)[C@@H](C)O)C(C)C)[C@@H](C)O)[C@@H](C)CC)[C@@H](C)CC)C(N)=O (stereo partly drawn) [SEQ ID NO: 53, TKFTL SLDVP TNIMN LC(-NES)FNI AKAKN LRAQA AANAH LMAQI-NH2] (H-TKFTLSLDVPTNIMNLC(Succinimide(1-Et,3-yl))FNIAKAKNLRAQAAANAHLMAQI-NH2; N-terminus assumed) | ~2.22
CC[C@H](C)[C@H](NC(=O)[C@H](CCC(N)=O)NC(=O)[C@H](C)NC(=O)[C@H](CCSC)NC(=O)[C@H](CC(C)C)NC(=O)[C@H](Cc1c[nH]cn1)NC(=O)[C@H](C)NC(=O)[C@H](CC(N)=O)NC(=O)[C@H](C)NC(=O)[C@H](C)NC(=O)[C@H](C)NC(=O)[C@H](CCC(N)=O)NC(=O)[C@H](C)NC(=O)[C@H](CCCNC(=N)N)NC(=O)[C@H](CC(C)C)NC(=O)[C@H](CC(N)=O)NC(=O)[C@H](CCCCN)NC(=O)[C@H](C)NC(=O)[C@H](CCCCN)NC(=O)[C@H](C)NC(=O)[C@@H](NC(=O)[C@H](CC(N)=O)NC(=O)[C@H](Cc1ccccc1)NC(=O)[C@H](CC(C)C)NC(=O)[C@H](CSC1CC(=O)N(CC)C1=O)NC(=O)[C@H](CC(N)=O)NC(=O)[C@H](CCSC)NC(=O)[C@@H](NC(=O)[C@H](CC(N)=O)NC(=O)[C@@H](NC(=O)[C@@H]1CCCN1C(=O)[C@@H](NC(=O)[C@H](CC(=O)O)NC(=O)[C@H](CC(C)C)NC(=O)[C@H](CO)NC(=O)[C@H](CC(C)C)NC(=O)[C@@H](NC(=O)[C@H](Cc1ccccc1)NC(=O)[C@H](CCCCN)NC(=O)[C@@H](N)[C@@H](C)O)[C@@H](C)O)C(C)C)[C@@H](C)O)[C@@H](C)CC)[C@@H](C)CC)C(N)=O (stereo partly drawn) [SEQ ID NO: 54, TKFTL SLDVP TNIMN C(-NES)LFNI AKAKN LRAQA AANAH LMAQI-NH2] (H-TKFTLSLDVPTNIMNC(Succinimide(1-Et,3-yl))LFNIAKAKNLRAQAAANAHLMAQI-NH2; N-terminus assumed) | −0.08
CKFTLSLDVPTNIMNLLFNIAKAKNLRAQAAANAHLMAQI-NH2 [SEQ ID NO: 2, CKFTLSLDVPTNIMNLLFNIAKAKNLRAQAAANAHLMAQI-NH2] | 0.72
TCFTLSLDVPTNIMNLLFNIAKAKNLRAQAAANAHLMAQI-NH2 [SEQ ID NO: 3, TCFTLSLDVPTNIMNLLFNIAKAKNLRAQAAANAHLMAQI-NH2] | 0.72
TKCTLSLDVPTNIMNLLFNIAKAKNLRAQAAANAHLMAQI-NH2 [SEQ ID NO: 4, TKCTLSLDVPTNIMNLLFNIAKAKNLRAQAAANAHLMAQI-NH2] | 1.03
TKFCLSLDVPTNIMNLLFNIAKAKNLRAQAAANAHLMAQI-NH2 [SEQ ID NO: 5, TKFCLSLDVPTNIMNLLFNIAKAKNLRAQAAANAHLMAQI-NH2] | 0.76
TKFTCSLDVPTNIMNLLFNIAKAKNLRAQAAANAHLMAQI-NH2 [SEQ ID NO: 6, TKFTCSLDVPTNIMNLLFNIAKAKNLRAQAAANAHLMAQI-NH2] | 0.61
TKFTLCLDVPTNIMNLLFNIAKAKNLRAQAAANAHLMAQI-NH2 [SEQ ID NO: 7, TKFTLCLDVPTNIMNLLFNIAKAKNLRAQAAANAHLMAQI-NH2] | 2.08
TKFTLSCDVPTNIMNLLFNIAKAKNLRAQAAANAHLMAQI-NH2 [SEQ ID NO: 8, TKFTLSCDVPTNIMNLLFNIAKAKNLRAQAAANAHLMAQI-NH2] | 2.86
TKFTLSLCVPTNIMNLLFNIAKAKNLRAQAAANAHLMAQI-NH2 [SEQ ID NO: 9, TKFTLSLCVPTNIMNLLFNIAKAKNLRAQAAANAHLMAQI-NH2] | 1.89
TKFTLSLDCPTNIMNLLFNIAKAKNLRAQAAANAHLMAQI-NH2 [SEQ ID NO: 10, TKFTLSLDCPTNIMNLLFNIAKAKNLRAQAAANAHLMAQI-NH2] | 1.30
TKFTLSLDVCTNIMNLLFNIAKAKNLRAQAAANAHLMAQI-NH2 [SEQ ID NO: 11, TKFTLSLDVCTNIMNLLFNIAKAKNLRAQAAANAHLMAQI-NH2] | 0.82
TKFTLSLDVPCNIMNLLFNIAKAKNLRAQAAANAHLMAQI-NH2 [SEQ ID NO: 12, TKFTLSLDVPCNIMNLLFNIAKAKNLRAQAAANAHLMAQI-NH2] | 1.72
TKFTLSLDVPTCIMNLLFNIAKAKNLRAQAAANAHLMAQI-NH2 [SEQ ID NO: 13, TKFTLSLDVPTCIMNLLFNIAKAKNLRAQAAANAHLMAQI-NH2] | −0.01
TKFTLSLDVPTNCMNLLFNIAKAKNLRAQAAANAHLMAQI-NH2 [SEQ ID NO: 14, TKFTLSLDVPTNCMNLLFNIAKAKNLRAQAAANAHLMAQI-NH2] | >2
TKFTLSLDVPTNICNLLFNIAKAKNLRAQAAANAHLMAQI-NH2 [SEQ ID NO: 15, TKFTLSLDVPTNICNLLFNIAKAKNLRAQAAANAHLMAQI-NH2] | 0.90
TKFTLSLDVPTNIMCLLFNIAKAKNLRAQAAANAHLMAQI-NH2 [SEQ ID NO: 16, TKFTLSLDVPTNIMCLLFNIAKAKNLRAQAAANAHLMAQI-NH2] | 0.76
TKFTLSLDVPTNIMNCLFNIAKAKNLRAQAAANAHLMAQI-NH2 [SEQ ID NO: 17, TKFTLSLDVPTNIMNCLFNIAKAKNLRAQAAANAHLMAQI-NH2] | 0.02
TKFTLSLDVPTNIMNLCFNIAKAKNLRAQAAANAHLMAQI-NH2 [SEQ ID NO: 18, TKFTLSLDVPTNIMNLCFNIAKAKNLRAQAAANAHLMAQI-NH2] | 1.11
TKFTLSLDVPTNIMNLLCNIAKAKNLRAQAAANAHLMAQI-NH2 [SEQ ID NO: 19, TKFTLSLDVPTNIMNLLCNIAKAKNLRAQAAANAHLMAQI-NH2] | 1.67

Same assay, conditions: Table 14

Molecule | pA50
TKFTLSLDVPTNIMNLLFNIAKAKNLRC(-IA-PEG MW20000)QA AANAH LMAQI-NH2 (TKFTLSLDVPTNIMNLLFNIAKAKNLRC(IA‑PEG 20 kDa)QAAANAHLMAQI-NH2) [SEQ ID NO: 102] | 8.15

Same assay, conditions: Table 14; % of the maximum response obtained to h-SCP

Molecule | αmax [%]
TKFTLSLDVPTNIMNLLFNIAKAKNLRC(-IA-PEG MW20000)QA AANAH LMAQI-NH2 (TKFTLSLDVPTNIMNLLFNIAKAKNLRC(IA‑PEG 20 kDa)QAAANAHLMAQI-NH2) [SEQ ID NO: 102] | 111.1

Same assay, conditions: Table 14; Hill slope

Molecule | nH
TKFTLSLDVPTNIMNLLFNIAKAKNLRC(-IA-PEG MW20000)QA AANAH LMAQI-NH2 (TKFTLSLDVPTNIMNLLFNIAKAKNLRC(IA‑PEG 20 kDa)QAAANAHLMAQI-NH2) [SEQ ID NO: 102] | 1.05

Same assay, conditions: in the presence of 100 nM anti-sauvagine-30; maximal response constrained to 100%

Molecule | pA50 approximate value
TKFTLSLDVPTNIMNLLFNIAKAKNLRC(-IA-PEG MW20000)QA AANAH LMAQI-NH2 (TKFTLSLDVPTNIMNLLFNIAKAKNLRC(IA‑PEG 20 kDa)QAAANAHLMAQI-NH2) [SEQ ID NO: 102] | ~6.89

Same assay, conditions: tested as antagonists of h-SCP at 10 μM; read-out: receptor affinity (KA)

Molecule | Kd [µM]
DVPTNIMNLLFNIAKAKNLRAQAAANAHLMAQI-NH2 [SEQ ID NO: 112, DVPTNIMNLLFNIAKAKNLRAQAAANAHLMAQI-NH2] | < 10
LDVPTNIMNLLFNIAKAKNLRAQAAANAHLMAQI-NH2 [SEQ ID NO: 111, LDVPTNIMNLLFNIAKAKNLRAQAAANAHLMAQI-NH2] | < 10
SLDVPTNIMNLLFNIAKAKNLRAQAAANAHLMAQI-NH2 [SEQ ID NO: 110, SLDVPTNIMNLLFNIAKAKNLRAQAAANAHLMAQI-NH2] | < 10
